Bridge positions count the residues as written; N and C are the ends. Square brackets hold non-standard residues; d marks the D form. Peptide text beside a SMILES is read from it. * marks the point of attachment. X1 = O=C(O)CN1CCN(CC(=O)O)CCN(CC(=O)NCCN2C(=O)CC(*)C2=O)CCN(CC(=O)O)CC1; Ahx = NCCCCCC(=O)O
Key:
GLP-1R = GLP-1R (Homo sapiens, UniProt P43220); experiment: cAMP accumulation in HEK293 cells stably expressing GLP-1R-GFP; type: cell-based; parameters: GFP; expressed in transfected cells; host or cells: HEK293
Source text: In all cases, reactions were stopped with 1.2 M trichloroacetic acid and cAMP was isolated by the two column chromatographic method.

GLP-1R in pancreas = biological target: T1, GLP-1R in pancreas (Mus musculus, UniProt O35659); experiment: Dynamic PET/CT imaging of ^64Cu-labeled peptides in normal mice; settings: ^64Cu labeled, normal mice, dynamic PET-CT
T1 sequence (O35659 22-463): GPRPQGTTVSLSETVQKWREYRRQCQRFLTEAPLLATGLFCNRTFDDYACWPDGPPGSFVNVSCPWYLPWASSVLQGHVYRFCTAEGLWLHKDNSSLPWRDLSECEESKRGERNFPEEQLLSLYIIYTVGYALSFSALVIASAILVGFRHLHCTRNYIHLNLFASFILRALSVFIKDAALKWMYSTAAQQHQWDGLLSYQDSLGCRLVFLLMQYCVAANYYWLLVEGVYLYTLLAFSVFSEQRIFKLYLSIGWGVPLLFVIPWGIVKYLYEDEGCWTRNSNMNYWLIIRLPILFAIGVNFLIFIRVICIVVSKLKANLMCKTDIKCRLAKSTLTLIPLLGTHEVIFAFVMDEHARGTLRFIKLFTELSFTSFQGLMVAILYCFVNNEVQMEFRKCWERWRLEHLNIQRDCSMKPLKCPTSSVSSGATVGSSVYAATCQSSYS
Protocol: Dynamic PET/CT scans were performed on a Siemens Inveon PET-CT multimodality system using normal male BABL/c mice (n=3 per peptide). Post-PET biodistribution was performed to verify the imaging findings.
In addition, D-Ala^8 was also introduced to prevent the degradation by DPP-IV.
FIG. 9 are graphs that show a comparison of contrast in pancreatic, liver and kidney microPET scans. […] Quantitative analysis based on microPET/CT 0-60 min dynamic scans, animal model: Normal BABL/c mice at 6-8 wks.

Chain of GLP-1R (P43220 24-463): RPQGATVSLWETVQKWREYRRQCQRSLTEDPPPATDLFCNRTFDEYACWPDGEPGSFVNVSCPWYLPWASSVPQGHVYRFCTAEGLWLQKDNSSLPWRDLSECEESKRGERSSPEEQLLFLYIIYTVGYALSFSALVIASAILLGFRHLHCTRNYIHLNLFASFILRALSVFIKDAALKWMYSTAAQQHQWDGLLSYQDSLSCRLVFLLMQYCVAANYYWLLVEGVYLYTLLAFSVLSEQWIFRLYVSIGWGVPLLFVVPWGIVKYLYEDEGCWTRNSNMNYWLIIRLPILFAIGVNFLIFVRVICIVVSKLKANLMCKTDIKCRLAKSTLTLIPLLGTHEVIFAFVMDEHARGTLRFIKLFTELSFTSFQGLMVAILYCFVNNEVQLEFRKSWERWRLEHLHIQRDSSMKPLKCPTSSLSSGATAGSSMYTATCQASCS

| Structure (SMILES) | EC50 (GLP-1R) [nM] | pancreatic retention (GLP-1R in pancreas) [min] |
| --- | --- | --- |
| CC[C@H](C)[C@H](NC(=O)[C@H](Cc1ccccc1)NC(=O)[C@H](CCC(=O)O)NC(=O)[C@H](CCCCN)NC(=O)[C@H](C)NC(=O)[C@H](C)NC(=O)[C@H](CCC(N)=O)NC(=O)CNC(=O)[C@H](CCC(=O)O)NC(=O)[C@@H]1CCCCNC(=O)CC[C@H](NC(=O)[C@H](CC(=O)O)NC(=O)[C@H](CO)NC(=O)[C@@H](NC(=O)[C@H](Cc2ccccc2)NC(=O)[C@@H](NC(=O)CNC(=O)[C@H](CCC(=O)O)NC(=O)[C@@H](C)NC(=O)[C@@H](N)Cc2c[nH]cn2)[C@@H](C)O)[C@@H](C)O)C(=O)N[C@@H](CO)C(=O)N[C@@H](CO)C(=O)N[C@@H](Cc2ccc(O)cc2)C(=O)N1)C(=O)N[C@H]1CCC(=O)NCCCC[C@@H](C(=O)NCC(=O)N[C@@H](CCCNC(=N)N)C(=O)NCCCCCC(=O)N[C@@H](CSC2CC(=O)N(CCNC(=O)CN3CCN(CC(=O)O)CCN(CC(=O)O)CCN(CC(=O)O)CC3)C2=O)C(N)=O)NC(=O)[C@H](C(C)C)NC(=O)[C@H](CC(C)C)NC(=O)[C@H](Cc2c[nH]c3ccccc23)NC1=O (stereo partly drawn) [EM2196, HXEGTFTSDESSYKEGQAAKEFIEWLVKG R, wherein X is D-Ala] (H-H[dA]EGTFTSDESSYKEGQAAKEFIEWLVKGR[Ahx]C(X1)-NH2; lactam 10-14, 24-28) | ~1 |  |
| CC[C@H](C)[C@H](NC(=O)[C@H](Cc1ccccc1)NC(=O)[C@H](CCC(=O)O)NC(=O)[C@H](CCCCN)NC(=O)[C@H](C)NC(=O)[C@H](C)NC(=O)[C@H](CCC(N)=O)NC(=O)[C@@H]1CCCCNC(=O)CC[C@H](NC(=O)[C@H](CO)NC(=O)[C@@H](NC(=O)[C@H](CC(=O)O)NC(=O)[C@H](CO)NC(=O)[C@@H](NC(=O)[C@H](Cc2ccccc2)NC(=O)[C@@H](NC(=O)CNC(=O)[C@H](CCC(=O)O)NC(=O)[C@@H](C)NC(=O)[C@@H](N)Cc2c[nH]cn2)[C@@H](C)O)[C@@H](C)O)C(C)C)C(=O)N[C@@H](Cc2ccc(O)cc2)C(=O)N[C@@H](CC(C)C)C(=O)N[C@@H](CCC(=O)O)C(=O)N1)C(=O)N[C@H]1CCC(=O)NCCCC[C@@H](C(=O)NCC(=O)N[C@@H](CCCNC(=N)N)C(=O)NCCCCCC(=O)N[C@@H](CSC2CC(=O)N(CCNC(=O)CN3CCN(CC(=O)O)CCN(CC(=O)O)CCN(CC(=O)O)CC3)C2=O)C(N)=O)NC(=O)[C@H](C(C)C)NC(=O)[C@H](CC(C)C)NC(=O)[C@H](Cc2c[nH]c3ccccc23)NC1=O (stereo partly drawn) [EM2198, HXEGTFTSDVSEYLEKQAAKEFIEWLVKGR, wherein X is D-Ala] | ~1 | > 30 |

Reference: patent publication US8992886B2, “Cyclic peptide analogues for non-invasive imaging of pancreatic beta-cells” (Board of Regents, the University of Texas System, priority 2009, dated 2015)
